According to PMC5218480 (PLoS ONE, 2017):

Test system: MV-4-11 cells
Experiment: Gene expression microarray analysis (Affymetrix PrimeView) and GSEA
Type: cell-based, human
Design: RFU PODN (11730768_x_at) / Fold change /veh PODN (11730768_x_at) / RFU LINC00158 (11744669_a_at) / Fold change /veh LINC00158 (11744669_a_at) / RFU DUSP10 (11751237_a_at) / Fold change /veh DUSP10 (11751237_a_at) / RFU ID3 (11757404_x_at) / Fold change /veh ID3 (11757404_x_at) / RFU PLEKHG5 (11737974_s_at) / Fold change /veh PLEKHG5 (11737974_s_at) / RFU LRRC4B (11730491_at) / Fold change /veh LRRC4B (11730491_at) / RFU GIMAP4 (11747438_a_at) / Fold change /veh GIMAP4 (11747438_a_at) / RFU KRT8 (11758183_x_at) / Fold change /veh KRT8 (11758183_x_at) / RFU CNN1 (11734310_a_at) / Fold change /veh CNN1 (11734310_a_at) / RFU VPS37D (11726825_at) / Fold change /veh VPS37D (11726825_at) / RFU C10orf10 (11716522_x_at) / Fold change /veh C10orf10 (11716522_x_at) / RFU KIR2DL2 /// KIR2DL4 /// KIR2DL5A /// KIR2DL5B /// KIR2DS1 /// KIR2DS2 /// KIR2DS3 /// KIR2DS4 /// KIR3DL3 /// KIR3DL3 /// KIR3DS1 (11738374_at) / Fold change /veh KIR2DL2 /// KIR2DL4 /// KIR2DL5A /// KIR2DL5B /// KIR2DS1 /// KIR2DS2 /// KIR2DS3 /// KIR2DS4 /// KIR3DL3 /// KIR3DL3 /// KIR3DS1 (11738374_at) / RFU C1QL1 (11718748_at) / Fold change /veh C1QL1 (11718748_at) / RFU TMPRSS4 (11747572_a_at) / Fold change /veh TMPRSS4 (11747572_a_at) / RFU HAMP (11756126_x_at) / Fold change /veh HAMP (11756126_x_at) / RFU RNFT2 (11725882_a_at) / Fold change /veh RNFT2 (11725882_a_at) / RFU NR4A2 (11747474_a_at) / Fold change /veh NR4A2 (11747474_a_at) / RFU ABCC12 (11746883_a_at) / Fold change /veh ABCC12 (11746883_a_at) / RFU TMEM136 (11760407_x_at) / Fold change /veh TMEM136 (11760407_x_at) / RFU CLDN22 /// WWC2 (11732394_at) / Fold change /veh CLDN22 /// WWC2 (11732394_at) / RFU HLA-DPB1 (11760878_x_at) / Fold change /veh HLA-DPB1 (11760878_x_at) / RFU SPINT1 (11716480_a_at) / Fold change /veh SPINT1 (11716480_a_at) / RFU GAP43 (11754022_s_at) / Fold change /veh GAP43 (11754022_s_at) / RFU A4GNT (11735810_at) / Fold change /veh A4GNT (11735810_at) / RFU PRB3 (11715151_x_at) / Fold change /veh PRB3 (11715151_x_at) / RFU TUBB4B (11761932_at) / Fold change /veh TUBB4B (11761932_at) / RFU CAPN14 (11732068_a_at) / Fold change /veh CAPN14 (11732068_a_at) / RFU TMCC2 (11721928_a_at) / Fold change /veh TMCC2 (11721928_a_at) / RFU IRGQ (11745062_a_at) / Fold change /veh IRGQ (11745062_a_at) / RFU FAM174B (11720279_a_at) / Fold change /veh FAM174B (11720279_a_at) / RFU TMPRSS4 (11748680_a_at) / Fold change /veh TMPRSS4 (11748680_a_at) / RFU FAM212B (11763350_a_at) / Fold change /veh FAM212B (11763350_a_at) / RFU PLEKHG5 (11743358_a_at) / Fold change /veh PLEKHG5 (11743358_a_at) / RFU ZSCAN30 (11745921_a_at) / Fold change /veh ZSCAN30 (11745921_a_at) / RFU CMKLR1 (11741424_a_at) / Fold change /veh CMKLR1 (11741424_a_at) / RFU LOC101060620 /// MAPK8IP1 (11723275_at) / Fold change /veh LOC101060620 /// MAPK8IP1 (11723275_at) / RFU SPTSSB (11747773_x_at) / Fold change /veh SPTSSB (11747773_x_at) / RFU PRSS12 (11739890_at) / Fold change /veh PRSS12 (11739890_at) / RFU BIN1 (11741810_x_at) / Fold change /veh BIN1 (11741810_x_at) / RFU WNT11 (11732464_a_at) / Fold change /veh WNT11 (11732464_a_at) / RFU C10orf10 (11716521_a_at) / Fold change /veh C10orf10 (11716521_a_at) / RFU C5orf56 (11738089_at) / Fold change /veh C5orf56 (11738089_at) / RFU CYB561 (11721691_x_at) / Fold change /veh CYB561 (11721691_x_at) / RFU ANKRD19P (11752326_a_at) / Fold change /veh ANKRD19P (11752326_a_at) / RFU OR2T12 /// OR2T33 /// OR2T8 (11738714_s_at) / Fold change /veh OR2T12 /// OR2T33 /// OR2T8 (11738714_s_at) / RFU VCAN (11748164_a_at) / Fold change /veh VCAN (11748164_a_at) / RFU JSRP1 (11732532_at) / Fold change /veh JSRP1 (11732532_at) / RFU KRTAP10-11 (11738290_x_at) / Fold change /veh KRTAP10-11 (11738290_x_at) / RFU MYO3A (11730013_a_at) / Fold change /veh MYO3A (11730013_a_at) / RFU EBF3 (11725865_a_at) / Fold change /veh EBF3 (11725865_a_at) / RFU CAMK2N1 (11719241_x_at) / Fold change /veh CAMK2N1 (11719241_x_at) / RFU C5orf56 (11738088_a_at) / Fold change /veh C5orf56 (11738088_a_at) / RFU OLFML3 (11715873_a_at) / Fold change /veh OLFML3 (11715873_a_at) / RFU LOC100653217 /// NTM (11731650_a_at) / Fold change /veh LOC100653217 /// NTM (11731650_a_at) / RFU MAPK11 (11762145_a_at) / Fold change /veh MAPK11 (11762145_a_at) / RFU FIZ1 (11724087_x_at) / Fold change /veh FIZ1 (11724087_x_at) / RFU OASL (11726364_x_at) / Fold change /veh OASL (11726364_x_at) / RFU SOX15 (11748057_x_at) / Fold change /veh SOX15 (11748057_x_at) / RFU CD79A (11719716_a_at) / Fold change /veh CD79A (11719716_a_at) / RFU HIST1H1D (11736915_at) / Fold change /veh HIST1H1D (11736915_at) / RFU CASKIN2 (11723855_a_at) / Fold change /veh CASKIN2 (11723855_a_at) / RFU LOC730098 (11760151_x_at) / Fold change /veh LOC730098 (11760151_x_at) / RFU OR4N2 (11742367_at) / Fold change /veh OR4N2 (11742367_at) / RFU PRRT2 (11749266_a_at) / Fold change /veh PRRT2 (11749266_a_at) / RFU SNX32 (11753110_a_at) / Fold change /veh SNX32 (11753110_a_at) / RFU CDHR5 (11726645_a_at) / Fold change /veh CDHR5 (11726645_a_at) / RFU RCAN1 (11760418_a_at) / Fold change /veh RCAN1 (11760418_a_at) / RFU FAM167A (11723789_a_at) / Fold change /veh FAM167A (11723789_a_at) / RFU FAM26E (11764081_at) / Fold change /veh FAM26E (11764081_at) / RFU ISYNA1 (11749810_s_at) / Fold change /veh ISYNA1 (11749810_s_at) / RFU ACY1 (11761880_at) / Fold change /veh ACY1 (11761880_at) / RFU 11764098_at / Fold change /veh 11764098_at / RFU SAMD14 (11745864_x_at) / Fold change /veh SAMD14 (11745864_x_at) / RFU NPB (11741838_a_at) / Fold change /veh NPB (11741838_a_at) / RFU TMPRSS6 (11731388_a_at) / Fold change /veh TMPRSS6 (11731388_a_at) / RFU KRTAP10-2 (11738614_at) / Fold change /veh KRTAP10-2 (11738614_at) / RFU ARHGAP8 /// PRR5-ARHGAP8 (11727945_x_at) / Fold change /veh ARHGAP8 /// PRR5-ARHGAP8 (11727945_x_at) / RFU KRTAP5-7 /// NADSYN1 (11734609_at) / Fold change /veh KRTAP5-7 /// NADSYN1 (11734609_at) / RFU RASL12 (11751679_a_at) / Fold change /veh RASL12 (11751679_a_at) / RFU CDKN2B (11736163_a_at) / Fold change /veh CDKN2B (11736163_a_at) / RFU PRF1 (11729649_at) / Fold change /veh PRF1 (11729649_at) / RFU, ZNF638 /// ZNF638-IT1 / Fold change vs veh, ZNF638 /// ZNF638-IT1 / RFU, PANK3 / Fold change vs veh, PANK3 / RFU, SH3YL1 / Fold change vs veh, SH3YL1 / RFU, ZEB2 / Fold change vs veh, ZEB2 / RFU, NRIP1 / Fold change vs veh, NRIP1 / RFU, PTTG1IP / Fold change vs veh, PTTG1IP / RFU, CAPN2 / Fold change vs veh, CAPN2 / RFU, MED14 / Fold change vs veh, MED14 / RFU, SNORA58 / Fold change vs veh, SNORA58 / RFU, C1orf63 / Fold change vs veh, C1orf63 / RFU, LRRFIP1 / Fold change vs veh, LRRFIP1 / RFU, NDUFAF7 / Fold change vs veh, NDUFAF7 / RFU, SLC12A2 / Fold change vs veh, SLC12A2 / RFU, IBTK / Fold change vs veh, IBTK / RFU, ESF1 / Fold change vs veh, ESF1 / Fold change vs veh, TMEM50B / RFU, TAOK1 / Fold change vs veh, TAOK1 / RFU, ACBD3 / Fold change vs veh, ACBD3 / RFU, TMA16 / Fold change vs veh, TMA16 / RFU, RWDD3 / Fold change vs veh, RWDD3 / RFU, BCAT1 / Fold change vs veh, BCAT1 / RFU, EDEM3 / Fold change vs veh, EDEM3 / RFU, TMEM33 / Fold change vs veh, TMEM33 / RFU, WDR75 / Fold change vs veh, WDR75 / RFU, AHCTF1 / Fold change vs veh, AHCTF1 / RFU, TFRC / Fold change vs veh, TFRC / RFU, ZDHHC17 / Fold change vs veh, ZDHHC17 / RFU, NOM1 / Fold change vs veh, NOM1 / RFU, ARL8B / Fold change vs veh, ARL8B / RFU, ZBTB11 / Fold change vs veh, ZBTB11 / RFU, TAMM41 / Fold change vs veh, TAMM41 / RFU, KIAA1704 /// LOC100996395 / Fold change vs veh, KIAA1704 /// LOC100996395 / RFU, ING1 / Fold change vs veh, ING1 / RFU, TRMT61B / Fold change vs veh, TRMT61B / RFU, FUBP3 / Fold change vs veh, FUBP3 / RFU, TP53 / Fold change vs veh, TP53 / RFU, TNKS2 / Fold change vs veh, TNKS2 / RFU, ZFP14 / Fold change vs veh, ZFP14 / RFU, ACTR2 / Fold change vs veh, ACTR2 / RFU, PPP3R1 / Fold change vs veh, PPP3R1 / RFU, PIK3R1 / Fold change vs veh, PIK3R1 / RFU, HNRNPA1 / Fold change vs veh, HNRNPA1 / RFU, RNF170 / Fold change vs veh, RNF170 / RFU, ZNF28 / Fold change vs veh, ZNF28 / RFU, RNGTT / Fold change vs veh, RNGTT / RFU, OGT / Fold change vs veh, OGT / RFU, BRD1 / Fold change vs veh, BRD1 / RFU, MARS / Fold change vs veh, MARS / RFU, ZNF655 / Fold change vs veh, ZNF655 / RFU, FAHD1 / Fold change vs veh, FAHD1 / RFU, BDP1 / Fold change vs veh, BDP1 / RFU, LRRCC1 / Fold change vs veh, LRRCC1 / RFU, ARID1A / Fold change vs veh, ARID1A / RFU, ZNF146 / Fold change vs veh, ZNF146 / RFU, ZNF330 / Fold change vs veh, ZNF330 / RFU, GPN3 / Fold change vs veh, GPN3 / RFU, C9orf123 / Fold change vs veh, C9orf123 / RFU, N4BP2L2 / Fold change vs veh, N4BP2L2 / RFU, ARFIP1 / Fold change vs veh, ARFIP1 / RFU, FAM179B / Fold change vs veh, FAM179B / RFU, BCL10 / Fold change vs veh, BCL10 / RFU, UHRF1BP1L / Fold change vs veh, UHRF1BP1L / RFU, BET1 / Fold change vs veh, BET1 / RFU, CNOT2 / Fold change vs veh, CNOT2 / RFU, ZNF268 / Fold change vs veh, ZNF268 / Fold change vs veh, ZNF507 / RFU, DGCR2 / Fold change vs veh, DGCR2 / RFU, WDSUB1 / Fold change vs veh, WDSUB1 / Fold change vs veh, HSP90B1 /// MIR3652 / RFU, ADSS / Fold change vs veh, ADSS / RFU, GK / Fold change vs veh, GK / RFU, ZNF148 / Fold change vs veh, ZNF148 / RFU, TAF9 / Fold change vs veh, TAF9 / RFU, SLC1A5 / Fold change vs veh, SLC1A5 / RFU, SLMO2 / Fold change vs veh, SLMO2 / RFU, ABCC4 / Fold change vs veh, ABCC4 / RFU, LOC101060439 /// RAP1B / Fold change vs veh, LOC101060439 /// RAP1B / RFU, RFX7 / Fold change vs veh, RFX7 / RFU, GTPBP10 / Fold change vs veh, GTPBP10 / RFU, CNEP1R1 / Fold change vs veh, CNEP1R1 / RFU, BIVM-ERCC5 /// ERCC5 / Fold change vs veh, BIVM-ERCC5 /// ERCC5 / RFU, ILF3 / Fold change vs veh, ILF3 / RFU 11762660_at / Fold change /veh 11762660_at / RFU VCAN (11757783_s_at) / Fold change /veh VCAN (11757783_s_at) / RFU DDX43 (11728927_at) / Fold change /veh DDX43 (11728927_at) / RFU KRT8 (11758188_x_at) / Fold change /veh KRT8 (11758188_x_at) / RFU NKD1 (11759106_at) / Fold change /veh NKD1 (11759106_at) / RFU SRD5A1 (11742802_a_at) / Fold change /veh SRD5A1 (11742802_a_at) / RFU TPSAB1 /// TPSB2 (11721975_s_at) / Fold change /veh TPSAB1 /// TPSB2 (11721975_s_at) / RFU GSTM3 (11746129_a_at) / Fold change /veh GSTM3 (11746129_a_at) / RFU IL23R (11737362_x_at) / Fold change /veh IL23R (11737362_x_at) / RFU TMEM51 (11727254_a_at) / Fold change /veh TMEM51 (11727254_a_at) / RFU PIWIL2 (11732686_x_at) / Fold change /veh PIWIL2 (11732686_x_at) / RFU ORM1 (11744905_x_at) / Fold change /veh ORM1 (11744905_x_at) / RFU CCDC152 (11743942_at) / Fold change /veh CCDC152 (11743942_at) / RFU ECM1 (11717891_a_at) / Fold change /veh ECM1 (11717891_a_at) / RFU IL23R (11748794_a_at) / Fold change /veh IL23R (11748794_a_at) / RFU TNFAIP8L3 (11732012_x_at) / Fold change /veh TNFAIP8L3 (11732012_x_at) / RFU MBOAT4 (11741988_at) / Fold change /veh MBOAT4 (11741988_at) / RFU 11764193_at / Fold change /veh 11764193_at / RFU TMEM53 (11763286_at) / Fold change /veh TMEM53 (11763286_at) / RFU MAGEB2 (11727129_at) / Fold change /veh MAGEB2 (11727129_at) / RFU TMEM200A (11744735_a_at) / Fold change /veh TMEM200A (11744735_a_at) / RFU CCDC152 (11751479_a_at) / Fold change /veh CCDC152 (11751479_a_at) / RFU FAM211A (11726209_a_at) / Fold change /veh FAM211A (11726209_a_at) / RFU RGS16 (11746705_a_at) / Fold change /veh RGS16 (11746705_a_at) / RFU VCAN (11755009_s_at) / Fold change /veh VCAN (11755009_s_at) / RFU RHOB (11743442_s_at) / Fold change /veh RHOB (11743442_s_at) / RFU RGS16 (11720943_a_at) / Fold change /veh RGS16 (11720943_a_at) / RFU RGS16 (11720944_at) / Fold change /veh RGS16 (11720944_at) / RFU, VPS4B / Fold change vs veh, VPS4B / RFU, CREB1 / Fold change vs veh, CREB1 / RFU, DNAJC13 / Fold change vs veh, DNAJC13 / RFU, GNAQ / Fold change vs veh, GNAQ / RFU, CDK5R1 / Fold change vs veh, CDK5R1 / RFU, ZRANB3 / Fold change vs veh, ZRANB3 / RFU, CUL4A / Fold change vs veh, CUL4A / RFU, CCNY / Fold change vs veh, CCNY / RFU, UFL1 / Fold change vs veh, UFL1 / RFU, COG3 / Fold change vs veh, COG3 / RFU, DIAPH2 / Fold change vs veh, DIAPH2 / RFU, SKA2 / Fold change vs veh, SKA2 / RFU, AFF3 / Fold change vs veh, AFF3 / RFU, LMF1 / Fold change vs veh, LMF1 / RFU, IPO11 / Fold change vs veh, IPO11 / RFU, DFFB / Fold change vs veh, DFFB / RFU, FOXP1 / Fold change vs veh, FOXP1 / RFU, CARD8 / Fold change vs veh, CARD8 / RFU, STRN3 / Fold change vs veh, STRN3 / RFU, ADK / Fold change vs veh, ADK / RFU, RASSF2 / Fold change vs veh, RASSF2 / RFU, WIPF1 / Fold change vs veh, WIPF1 / RFU, LARP1B / Fold change vs veh, LARP1B / RFU, RASA1 / Fold change vs veh, RASA1 / RFU, RB1 / Fold change vs veh, RB1 / RFU, PPFIA1 / Fold change vs veh, PPFIA1 / RFU, MAT2A / Fold change vs veh, MAT2A / RFU, CCT5 / Fold change vs veh, CCT5 / RFU, WDR92 / Fold change vs veh, WDR92 / RFU, CUX1 / Fold change vs veh, CUX1 / RFU, TTC7A / Fold change vs veh, TTC7A / RFU, TMEM135 / Fold change vs veh, TMEM135 / RFU, DEPTOR / Fold change vs veh, DEPTOR / RFU, CPM / Fold change vs veh, CPM / RFU, DNAJB6 / Fold change vs veh, DNAJB6 / RFU, CACNA2D3 / Fold change vs veh, CACNA2D3 / RFU, DTX4 / Fold change vs veh, DTX4 / RFU, TFCP2 / Fold change vs veh, TFCP2 / RFU, GMCL1 /// GMCL1P1 / Fold change vs veh, GMCL1 /// GMCL1P1 / RFU, AEBP2 / Fold change vs veh, AEBP2 / RFU, SNHG1 /// SNORD22 /// SNORD25 /// SNORD26 /// SNORD27 /// SNORD28 /// SNORD29 /// SNORD31 / Fold change vs veh, SNHG1 /// SNORD22 /// SNORD25 /// SNORD26 /// SNORD27 /// SNORD28 /// SNORD29 /// SNORD31 / Fold change (Aza/veh), C12orf56 (ProbeSet 11735607_a_at) / Fold change (ACY-1035/veh), C12orf56 (ProbeSet 11735607_a_at) / Fold change (Aza/veh), FGFR1OP (ProbeSet 11751329_s_at) / Fold change (ACY-1035/veh), FGFR1OP (ProbeSet 11751329_s_at) / Fold change (Aza/veh), VPS36 (ProbeSet 11739960_a_at) / Fold change (ACY-1035/veh), VPS36 (ProbeSet 11739960_a_at) / RFU SYPL1 (11715823_x_at) / Fold change /veh SYPL1 (11715823_x_at) / RFU IGFBP7 (11715501_s_at) / Fold change /veh IGFBP7 (11715501_s_at) / RFU REEP3 (11722064_at) / Fold change /veh REEP3 (11722064_at) / RFU IGLL1 (11728026_x_at) / Fold change /veh IGLL1 (11728026_x_at): dose or concentration left out as unconfirmed
Settings: ProbeSet 11719632_a_at; LIST B

**Q.** How did the “Fold change vs veh, ABCC4” value turn out when `Nc1ncn([C@@H]2O[C@H](CO)[C@@H](O)[C@H]2O)c(=O)n1` [azacitidine] was run?
**A.** 0.85
